Results from patent publication US20250120942A1, “BRAIN FUNCTION IMPROVING AGENT” (OSAKA UNIVERSITY, priority 2021, published 2025).

What was measured:
[1] = system: mouse reared in long-term isolation; assay: Novel object recognition test after long-term administration in feed during isolated rearing (Test Example 4); assay type: in vivo, ddY mouse; conditions: MF powdery feed containing 7 mg/100 g for 5 weeks of isolation; FIG. 4(A),(B)
Experimental: The compound A was orally administered for a long time and the effect of preventing the onset of cognitive dysfunction caused by the long-term isolated rearing was examined.
3-weeks-old male ddY mice were purchased from Japan SLC, Inc. The mice were reared in the rearing chamber provided with air conditioner (under the condition that the temperature was 22° C.±1° C., the relative humidity was 50±10%, and the irradiation time was 12 hours (8:00 to 20:00)). The feeding method was that the commercially available MF powdery feed (manufactured by Oriental Yeast Co., ltd.) and tap water were taken freely. […]
After the long-term rearing of 5 weeks, the object cognitive function was evaluated by the same method as that described in Test Example 3 and the effect of preventing the onset of cognitive dysfunction by administering the compound A during the long-term rearing was examined.
From the results obtained, the mean (Mean) and the standard error (SEM) were calculated. The significant difference of exploratory time in each group was assessed by using Student's t-test and the significant differences between the control group and Vehicle group and between the administration group of compound A and Vehicle group of Discrimination index were assessed by using Turkey-Kramer's test. […]

[2] = system: model mouse with the inflammation in brain induced by administering LPS; assay: Forced swimming test in mouse with inflammation in brain induced by LPS (Test Example 5); assay type: in vivo, C57/BL6J mice; conditions: test 24 hours after LPS, FIG. 5
Text: In regard to the depressive symptoms induced by taking LPS (Lipopolysaccharide), the effect of inhibiting the symptom by oral administration of the compound A was examined. The inflammation in the brain is thought to be one of the main onset factors of depression. It is known that LPS causes the inflammation in the brain by inducing the decrease in brain-derived neurotrophic factor and the variation of the density of dendrite of neuron, activating microglia and the like and induce depressive symptoms. […]
In 24 hours after the intraperitoneal administration of LPS, forced swimming test was conducted. The depressive symptoms were evaluated by measurement of the immobility time.
Water (25±1° C.) was put into the acryl resin cylinder (diameter 19 cm, height 25 cm) up to a height of 13 cm. The subject mouse was forced to swim for 6 minutes one by one and the state was video-recorded. […] “The state that the mouse floated on the water surface without moving its limbs and the like” was regarded as immobility and the Immobility Time (sec.) was measured during the test of 6 minutes.
From the results obtained, the mean (Mean) and the standard error (SEM) were calculated. The significant difference was assessed between the control group and Vehicle group and between the compound A administration group and the […] by using Turkey-Kramer's test. […]

SMILES: O=C1CC[C@H](Cc2cc(O)cc(O)c2)O1 [compound A, (R)-5-(3,5-dihydroxyphenyl)-γ-valerolactone]
- onset of cognitive dysfunction caused by long-term isolated rearing stress (exploratory time and Discrimination index) [1]: significantly inhibited
- increase of the immobility time in forced swimming test ([2]; oral 10 mg/kg and 30 mg/kg groups, LPS 0.5 mg/kg i.p. 30 minutes later): reduced
- immobility time in forced swimming test ([2]; oral 30 mg/kg, LPS 0.5 mg/kg i.p.): on the same level as that in the control group
